Assay results as given in article PMC7321408, “One-Pot Multicomponent Synthesis and Bioevaluation of Tetrahydroquinoline Derivatives as Potential Antioxidants, α-Amylase Enzyme Inhibitors, Anti-Cancerous and Anti-Inflammatory Agents” (Molecules, 2020).
Converted amounts (≈) assume the structure as drawn. Read-outs that look alike come from different tables or passages of the source.

Key:
[1] = DPPH free radical scavenging assay; details: mean ± SEM, n = 3; for IC50 (DPPH radical scavenging): concentration to scavenge 50% of the DPPH radicals
Description: The % free radical scavenging activity (%FRSA) of the synthetic compounds was evaluated by the discoloration of an unstable DPPH reagent to the stable yellow-colored 2,2-diphenyl-1-picrylhydrazine molecule by accepting one electron from a donor antioxidant; the mechanism is shown in Scheme 2.
The % FRSA (free radical scavenging activity) of the synthetic compounds was determined by using the method of Tai et al. with slight modifications. The antioxidant potential was determined by detecting the capacity of the synthetic compounds to quench the DPPH free radicals. The synthetic compounds were taken in a 96-well plate at three-fold concentrations of 200 µg/mL, 66.6 µg/mL, 22.2 µg/mL and 7.4 µg/mL. DPPH free radicals were added to entire wells to make up the volume up to 200 µL. DMSO and ascorbic acid were taken as negative and positive controls, respectively. The absorbance was taken at 630nm using a microplate reader (ELx800 BioTek). The percentage of scavenging activity was calculated by the given formula:% scavenging activity = (1 − Abs/Abc) × 100
Abs = sample’s absorbance; Abc = control’s absorbance.

[2] = system: Hep-2C cells; experiment: MTT assay against Hep-2C cells; assay type: cell-based, Human; details: read-out: IC50 (Mean ± SEM) Hep-2C Cells
Description: Hep-2C cell line experiments were performed in the Immunology Lab of the National Institute of Health (NIH), Islamabad, Pakistan. Human cervix carcinoma cells Hep-2C (ATCC HB-8065) were cultured in Dulbecco’s modified Eagle’s medium (DMEM), comprising 10% fetal calf serum (10% FCS) and supplemented with 2 mM L-glutamine, 100 U/mL penicillin, 100 µg/mL streptomycin and 1 mM Na pyruvate, at 37 °C in a humidified 5% CO2 incubator.
The tetrazolium dye 3-(4, 5-dimethyl thiazolyl-2)-2, 5-diphenyltetrazolium bromide (MTT) was used to assess the cytotoxic potential of the test compounds. In living cells, MTT is reduced into its insoluble purple product formazan, which is measured spectrophotometrically.
Hep-2C cells, in a density of 1 × 10^6 (> 90% cell viability), were cultured in a 96-well plate and treated with different concentrations of the test compounds for 24, 48 and 72 h. Ten microliters of MTT (1 mg per mL) were added per well followed by incubation for 4 h. Insoluble formazan crystals were dissolved by adding 100 µL of DMSO. Cells were then incubated for another 2 h. Absorbance was measured at 570 nm by a microplate reader. Untreated Hep-2C cells were taken as controls and DMSO as a negative. % cell viability = (abssample − absblank)/(abscontrol − absblank) × 100

[3] = system: brine shrimp nauplii; experiment: Brine shrimp lethality bioassay; assay type: in vivo; details: 24 h, n = 3
Description: Brine shrimp eggs were hatched in a shallow rectangular plastic dish and filled with artificial seawater, which was prepared with a commercial salt mixture. In a 96-well plate, 150 µL of artificial seawater was added and 10 nauplii were added into this. Test compounds (400, 200, 100 and 50 µg/mL) were added into each well and the final volume was made up by adding the artificial seawater. The well plate was left uncovered under a lamp. The number of surviving shrimps were counted and recorded after 24 h. The test was repeated in triplicate. […] The percentage mortality (%M) was also calculated by dividing the number of dead nauplii by the total number and then multiplied by 100.

[4] = MTT cytotoxicity against raw macrophages; assay type: cell-based, albino rats; details: albino, rat; for viability at 24 h, 1 µM / viability at 24 h, 10 µM / viability at 24 h, 50 µM / viability at 24 h, 100 µM: peritoneal macrophages (raw macrophages), raw macrophages, MTT, read-out: % Cell Viability; for IC50 at 24 h: primary peritoneal macrophages, mean ± SEM, n = 3
Description: The % cell viability of the synthetic library was evaluated in vitro by measuring the mitochondrial dehydrogenase activity (MTT test) on raw macrophages.
The cytotoxic potential was assessed by using an MTT 3-(4,5-dimethyl thiazole-2-yl)-2,5- diphenyl tetrazolium bromide assay. Briefly, macrophages were extracted from the peritoneal cavity of albino rats and plated at a density of 1 × 10^6 per well in a 96-well plate and incubated in a 5% CO2 incubator at 37 °C for 24 h. The cells were treated with various concentrations of the test compounds (100 µM, 50 µM, 10 µM and 1 µM) or vehicle alone. The test compounds were first dissolved in DMSO to make a 100 mM stock solution and then further dilutions were made from this stock solution. After 24 h of incubation, 20 µL of MTT (1 mg/mL in normal saline) was added into each well and incubated under the same conditions for 2 h. Mitochondrial succinate dehydrogenase converted MTT in live cells into purple formazan crystals. The formazan crystals were then solubilized in 100 µL DMSO, and the absorbance was measured at 570 nm. The % cell viability was calculated by the following formula; % cell viability = (abssample − absblank)/(abscontrol − absblank) × 100

[5] = system: NO generated by LPS-induced macrophages; experiment: Nitric oxide assay (Griess) in LPS-induced macrophages; assay type: cell-based, murine; details: Mus musculus, Macrophage, 18 h, LPS 1 µg/mL, read-out: % NO Production (Mean ± SEM)
Description: A Griess reagent, a spectrophotometric determination of nitrite level, was carried out to measure the nitrite level in the conditioned medium of macrophages treated with lipopolysaccharide (LPS). Sodium nitrite (NaNO2) was used as a standard compound for the standard curve (Figure 8). The NO concentrations were obtained using the standard curve equation: y = 0.0083x + 0.0017, R^2 = 0.9999, where y is the absorbance at 540 nm and x is the NO concentration in µM. The inhibitory activity of the tested compounds towards NO generated by LPS-induced macrophages was obtained from the calculated value of x.
The anti-inflammatory effect of the synthesized compounds in murine macrophages was evaluated by using the Griess reaction method, described previously. In brief, 1 × 10^6 were plated in a 96-well plate and incubated in a 5% CO2 incubator at 37 °C for 24 h, pre-treated with different concentrations (100 µM, 50 µM, 10 µM and 1 µM) of synthetic compounds for another 2 h and challenged with LPS (1 µg/mL) for an additional 18 h. Equal volumes of Griess reagent (1% sulphanilamide in 50% phosphoric acid and 0.1% naphthyl ethylenediamine dihydrochloride in distilled water and vortexed) and culture medium were mixed and the absorbance was taken at 540 nm. Lipopolysaccharide (LPS) was taken as a blank and piroxicam was taken as a positive control. A t-test was applied to determine the significance of the results.

[6] = system: carrageenan-induced paw edema; experiment: Carrageenan-induced paw edema (in vivo anti-inflammatory activity); design: species or system BALB/C albino mice; unit not given beside the values; details: 10 mg/kg, mice, n = 5
Description: At 7–8 weeks old, male BALB/C albino mice (29–35 g), were purchased from The National Institute of Health (NIH), Islamabad, Pakistan. Five animals were housed per group and placed in a controlled temperature and humidity-controlled room (22 °C and 66 ± 5%, respectively) in a 12 h light–dark cycle and provided with water and food ad libitum. Ethical approval was taken from the bio-ethical committee of Quaid-I-Azam University (Approval No. BEC-FBS-QAU2018-119) and all protocols were conducted following the Ethical Guide to the Code of Practice for the Housing and Care of Animals Act 1986 (ARRIVE (Animal Research: Reporting In Vivo Experiments) guidelines). The anti-inflammatory activity of the synthesized compounds was evaluated by using the carrageenan-induced rat paw edema assay. To determine the dose response of tetrahydroquinoline derivatives, animals were first given a dose of 0.1, 1 and 10 mg/kg against 100 µL carrageenan (1% solution in normal saline)/paw. Treatment was given 60 min before carrageenan injection. Readings were taken at 4 h post carrageenan injection. The in vivo anti-inflammatory activity was performed following the procedure described by Koksal, et al. in 2017. Paw edema was induced by injecting 100 µL of 1% sterile carrageenan solution into the right hind paw of mice. Synthesized compounds (10 mg/kg), vehicle (saline with 2% DMSO) and drug (acetylsalicylic acid, ASA 10 mg/kg) were administered to the mice orally by gastric intubation 60 min before injecting carrageenan into the right hind paw. The decrease in edema was measured by vernier calipers every 2 h.

| SMILES | IC50 (DPPH radical scavenging) [1] [µg/mL] | % DPPH Scavenging Activity ([1]; 7.4 µg/mL) [%] | % DPPH Scavenging Activity ([1]; 22.22 µg/mL) [%] | % DPPH Scavenging Activity ([1]; 66.66 µg/mL) [%] | % DPPH Scavenging Activity ([1]; 200 µg/mL) [%] | LD50 ± SEM (brine shrimp lethality) [3] [µg/mL] | viability at 24 h, 1 µM [4] [%] | viability at 24 h, 10 µM [4] [%] | viability at 24 h, 50 µM [4] [%] | viability at 24 h, 100 µM [4] [%] | IC50 at 24 h [4] [µM] | activity at 1 µM [5] [%] | activity at 10 µM [5] [%] | activity at 50 µM [5] [%] | activity at 100 µM [5] [%] | also measured |
| --- | --- | --- | --- | --- | --- | --- | --- | --- | --- | --- | --- | --- | --- | --- | --- | --- |
| O=c1c(O)c(-c2ccc(O)c(O)c2)oc2cc(O)cc(O)c12 [Quercetin, reference compound] | 41.64 ± 1.01 (≈ 138 µM) | 42.34 ± 0.36 | 58.31 ± 0.28 | 69.81 ± 0.17 | 81.43 ± 0.21 |  |  |  |  |  |  |  |  |  |  |  |
| N.N.[Cl][Pt][Cl] [Cisplatin, reference compound] |  |  |  |  |  |  |  |  |  |  |  |  |  |  |  | IC50 ([2]; 24 h): 19.1 ± 1.06 µM; IC50 ([2]; 48 h): 17.5 ± 1.07 µM; IC50 ([2]; 72 h, listed as cisplatin): 14.6 ± 1.01 µM; IC50 ([2]; 72 h): 14.6 ± 1.01 µM |
| CC(=O)Oc1ccccc1C(=O)O [Acetyl salicylic acid, reference compound] |  |  |  |  |  |  |  |  |  |  |  |  |  |  |  | Paw thickness ([6]; 0 h after carrageenan injection): 2.14 ± 0.08; Paw thickness ([6]; 2 h after carrageenan injection): 2.26 ± 0.05; Paw thickness ([6]; 4 h after carrageenan injection): 2.32 ± 0.04; Paw thickness ([6]; 6 h after carrageenan injection): 2.39 ± 0.02 |
| COc1cccc2c1C(=O)c1c(O)c3c(c(O)c1C2=O)C[C@@](O)(C(=O)CO)C[C@@H]3O[C@H]1C[C@H](N)[C@H](O)[C@H](C)O1 [Doxorubicin, reference compound] |  |  |  |  |  | 124 ± 1.54 | 51 ± 1.34 | 40 ± 0.87 | 33 ± 1.01 | 17 ± 0.83 | 17.1 ± 0.37 |  |  |  |  |  |
| O=C1O[C@H]([C@@H](O)CO)C(O)=C1O [Ascorbic Acid, reference compound] | 41.38 ± 0.34 (≈ 235 µM) | 31.35 ± 0.23 | 52.12 ± 0.31 | 76.63 ± 0.19 | 89.01 ± 0.18 |  |  |  |  |  |  |  |  |  |  |  |
| CN1C(C(=O)Nc2ccccn2)=C(O)c2ccccc2S1(=O)=O [Piroxicam, reference compound] |  |  |  |  |  |  |  |  |  |  |  | 25.4 ± 0.45 | 20.7 ± 0.24 | 16.5 ± 0.41 | 13.4 ± 0.54 |  |

Second part, led by results:

| IC50 (DPPH radical scavenging) [1] [µg/mL] | SMILES | % DPPH Scavenging Activity ([1]; 7.4 µg/mL) [%] | % DPPH Scavenging Activity ([1]; 22.22 µg/mL) [%] | % DPPH Scavenging Activity ([1]; 66.66 µg/mL) [%] | % DPPH Scavenging Activity ([1]; 200 µg/mL) [%] | LD50 ± SEM (brine shrimp lethality) [3] [µg/mL] | viability at 24 h, 1 µM [4] [%] | viability at 24 h, 10 µM [4] [%] | viability at 24 h, 50 µM [4] [%] | viability at 24 h, 100 µM [4] [%] | IC50 at 24 h [4] [µM] | activity at 1 µM [5] [%] | activity at 10 µM [5] [%] | activity at 50 µM [5] [%] | activity at 100 µM [5] [%] | also measured |
| --- | --- | --- | --- | --- | --- | --- | --- | --- | --- | --- | --- | --- | --- | --- | --- | --- |
| 53.63 ± 0.13 (≈ 246 µM) | CCN(CC)CN1CCCc2ccccc21 [SF11, N-((3,4-dihydroquinolin-1(2H)-yl)methyl)-N-ethylethanamine] | 7.76 ± 0.18 | 15.54 ± 0.09 | 30.9 ± 0.12 | 43.93 ± 0.28 | 200 ± 2.11 | 95 ± 0.91 | 82 ± 0.84 | 62 ± 1.2 | 41 ± 0.83 | 26.4 ± 0.31 | 43 ± 0.66 | 39.8 ± 0.61 | 33.7 ± 0.53 | 25.7 ± 0.44 |  |
| 35.89 ± 0.33 (≈ 155 µM) | c1ccc2c(c1)CCCN2CN1CCNCC1 [SF6, 1-(Piperazine-1-ylmethyl)-1,2,3,4-tetrahydroquinoline] | 8.81 ± 0.21 | 37.75 ± 0.31 | 50.32 ± 0.18 | 66.61 ± 0.13 | 121.2 ± 1.09 | 91 ± 0.99 | 87 ± 0.82 | 65 ± 0.76 | 60 ± 1.21 | 23.37 ± 0.17 | 77.3 ± 0.62 | 72.33 ± 0.59 | 61.11 ± 0.54 | 52.44 ± 0.49 |  |
